# Measured values published in patent publication US20030040438A1, “Method for increasing the yield of beans” (priority 2000, published 2003).
# Test system: soybean seeds (Variety: Halosoy)
# Assay: Test of Yield Increasing Effect on Soybeans (seed drenching)
# Assay type: in vivo
# Settings: seeds drenched 12 hours; for Productive grain increasing index: average number of productive grains per plant in non-treated section = 100%; for Yield increasing index per plant: harvest 110 days after sowing, yield (g) in non-treated section = 100%; for One grain weight: weight per selected bean after threshing and drying, non-treated 0.22 g
smiles,measurement,setting,value
"CCC1(C(=O)NC(C)c2ccc(Cl)cc2)C(C)C1(Cl)Cl [Carpropamid, N-(R)-[1-(4-chloro-phenyl)-ethyl]-2,2-dichloro-1-ethyl-3t-methyl-1r-cyclopropanecarboxamide]",Productive grain increasing index,1 ppm,127.1%
same,Yield increasing index per plant,1 ppm,131.1%
same,One grain weight,1 ppm,0.23 g
same,Productive grain increasing index,10 ppm,163.5%
same,Yield increasing index per plant,10 ppm,173.1%
same,One grain weight,10 ppm,0.23 g
same,Productive grain increasing index,100 ppm,163.4%
same,Yield increasing index per plant,100 ppm,169.1%
same,One grain weight,100 ppm,0.23 g
same,Productive grain increasing index,1000 ppm,126.8%
same,Yield increasing index per plant,1000 ppm,132.2%
same,One grain weight,1000 ppm,0.23 g
